BindingDB's records for doi:10.1021/acsmedchemlett.9b00286 (Bristol Myers Squibb, 2019)

Experiment: Inhibition of NS5A in HCV genotype 1b assessed as decrease in viral replication

Question: With `COC(=O)N[C@H](C(=O)N1CCC[C@H]1c1nc(-c2ccc(-c3ccc(-c4c[nH]c([C@@H]5CCCN5C(=O)[C@@H](NC(=O)OC)C(C)C)n4)cc3)cc2)c[nH]1)C(C)C` [BMS-790052] as the molecule, how does the EC50 read?
Answer: 4 pM
